Source: patent EP1019392B1, “TRICYCLIC AMIDES USEFUL FOR INHIBITION OF G-PROTEIN FUNCTION AND FOR TREATMENT OF PROLIFERATIVE DISEASES” (SCHERING CORPORATION, priority 1995, dated 1997)
Several values for one entry are separate records, joined by “and”; a condition that tells them apart may be missing. Equal entries are not always repeated. Where two headings read alike, the source gives them in different places.

Experiments:
[1] = system: DLD-1 (human colon carcinoma cells, ATCC # CCL 221); experiment: In Vivo Anti-Tumor Studies, subcutaneous DLD-1 tumors; design: species or system athymic nu/nu female mice; conditions: Mus musculus, DLD-1, po, QID, 4 weeks, range over the listed compounds; for inhibition in vivo at 10 mg/kg: 10 mg/kg p.o.; for inhibition in vivo at 50 mg/kg: 50 mg/kg p.o.
Excerpt: Tumor cells (5 X 10^5 to 8 X 10^6) of DLD-1 (human colon carcinoma cells, ATCC # CCL 221) are innolculated subcutaneously into the flank of 5-6 week o;d athymic nu/nu female mice.

[2] = system: SW620-BAG human colon carcinoma cells expressing an activated K-ras gene; experiment: Cell Mat Assay, SW620 tumor cells; format: cell-based
[3] = target: T1, farnesyl protein transferase (FPT) (Rattus norvegicus, UniProt Q02293+Q04631); experiment: In vitro enzyme assay: inhibition of farnesyl protein transferase (transfer of [3H]farnesyl to Ras-CVLS); format: biochemical
T1 construct: were partially purified from rat brain by ammonium sulfate fractionation followed by Q-Sepharose; from tissue; host or cells: rat brain

[4] = system: Normal human HEPM fibroblasts; experiment: Cell Mat Assay, normal cell mat; format: cell-based; conditions: Homo sapiens, Fibroblast, normal monolayer
[5] = Homo sapiens, SW-620, Mat assay
[6] = FPT IC50, Table 1, partially purified rat brain FPT, Ras-CVLS
[7] = Table 1, partially purified rat brain FPT, Ras-CVLS, read-out: FPT IC50
[8] = Table 2, comparison with GGPT, read-out: ENZYME INHIBITION FPT IC50

| SMILES | inhibition in vivo at 10 mg/kg [1] | inhibition in vivo at 50 mg/kg [1] | IC50 [2, 5] | IC50 [3, 6] | IC50 [4] | IC50 [3, 7] | IC50 [3, 8] | IC50 ([2]; Mat assay) |
| --- | --- | --- | --- | --- | --- | --- | --- | --- |
| O=C(Cc1cc[n+]([O-])cc1)N1CCN([C@H]2c3ccc(Cl)cc3CCc3cc(Br)cnc32)CC1 [Example 16B] | 7 to 50% | 35.4 to 83% | 25 µM | 38 nM and 23 nM | > 25 µM | – | – | – |
| O=C(Cc1cc[n+]([O-])cc1)N1CCN([C@@H]2c3ccc(Cl)cc3CCc3cc(Br)cnc32)CC1 [Example 16A] | – | – | – | 32 nM and 26 nM | – | – | – | – |
| NC(=O)N1CCC(CC(=O)N2CCC(C3c4ncc(Br)cc4CCc4cc(Cl)cc(Cl)c43)CC2)CC1 (single isomer, unassigned) [Example 18] | 7 to 50% | 35.4 to 83% | – | – | – | 3.1 nM | 3.1 nM | – |
| O=C(Cc1cc[n+]([O-])cc1)N1CCC(=C2c3ncc(Br)cc3CCc3cc(Cl)cc(Br)c32)CC1 (racemic) [Example 7] | 7 to 50% | 35.4 to 83% | 6.25 µM | – | > 25 µM | 12 nM | 12 nM | – |
| O=C(Cc1cc[n+]([O-])cc1)N1CCN([C@H]2c3ncc(Br)cc3CCc3cc(Cl)cc(Br)c32)CC1 [Example 11A] | 7 to 50% | 35.4 to 83% | – | – | > 25 µM | 1.8 nM and 2.1 nM | 1.8 nM and 2.1 nM | > 6.25 µM |
| O=C(Cc1cc[n+]([O-])cc1)N1CCC(C2c3ccc(Cl)c(Br)c3CCc3cc(Br)cnc32)CC1 (single isomer, unassigned) [Example 14A] | 7 to 50% | 35.4 to 83% | 12.5 µM | – | > 25 µM | 2.6 nM | 2.6 nM | – |
| O=C(Cc1cc[n+]([O-])cc1)N1CCC(=C2c3ccc(Cl)c(Br)c3CCc3cc(Br)cnc32)CC1 [Example 2] | 7 to 50% | 35.4 to 83% | 6.25 µM | – | > 25 µM | 10 nM and 16 nM | 10 nM and 16 nM | – |
| O=C(Cc1cc[n+]([O-])cc1)N1CCC([C@H]2c3ncc(Br)cc3CCc3cc(Cl)cc(Br)c32)CC1 [Example 9] | 7 to 50% | 35.4 to 83% | 6.25 µM | – | > 25 µM | 1.3 nM | 1.3 nM | – |
| NC(=O)N1CCC(CC(=O)N2CCC(C3c4ccc(Cl)c(Br)c4CCc4cc(Br)cnc43)CC2)CC1 (single isomer, unassigned) [Example 13] | 7 to 50% | 35.4 to 83% | – | – | – | 5 nM | 5 nM | – |
| O=C(Cc1cc[n+]([O-])cc1)N1CCN([C@H]2c3ccc(Cl)c(Br)c3CCc3cc(Br)cnc32)CC1 [Example 5] | 7 to 50% | 35.4 to 83% | 6.25 µM | – | > 25 µM | 2.3 nM | 2.3 nM | – |
